We go through 20 compounds from patent US20210300940A1 (Merck Patent GmbH, priority 2018, published 2021).

Structures can show the parent of a compound that is named as a salt.

The target of test [1] is T1, TLR7 (Homo sapiens, UniProt Q9NYK1).
T1 construct: expressed in transfected cells; host or cells: HEK/293 cells carrying TLR7 and an NF-kB luciferase reporter
T1 sequence (Q9NYK1 27-1049): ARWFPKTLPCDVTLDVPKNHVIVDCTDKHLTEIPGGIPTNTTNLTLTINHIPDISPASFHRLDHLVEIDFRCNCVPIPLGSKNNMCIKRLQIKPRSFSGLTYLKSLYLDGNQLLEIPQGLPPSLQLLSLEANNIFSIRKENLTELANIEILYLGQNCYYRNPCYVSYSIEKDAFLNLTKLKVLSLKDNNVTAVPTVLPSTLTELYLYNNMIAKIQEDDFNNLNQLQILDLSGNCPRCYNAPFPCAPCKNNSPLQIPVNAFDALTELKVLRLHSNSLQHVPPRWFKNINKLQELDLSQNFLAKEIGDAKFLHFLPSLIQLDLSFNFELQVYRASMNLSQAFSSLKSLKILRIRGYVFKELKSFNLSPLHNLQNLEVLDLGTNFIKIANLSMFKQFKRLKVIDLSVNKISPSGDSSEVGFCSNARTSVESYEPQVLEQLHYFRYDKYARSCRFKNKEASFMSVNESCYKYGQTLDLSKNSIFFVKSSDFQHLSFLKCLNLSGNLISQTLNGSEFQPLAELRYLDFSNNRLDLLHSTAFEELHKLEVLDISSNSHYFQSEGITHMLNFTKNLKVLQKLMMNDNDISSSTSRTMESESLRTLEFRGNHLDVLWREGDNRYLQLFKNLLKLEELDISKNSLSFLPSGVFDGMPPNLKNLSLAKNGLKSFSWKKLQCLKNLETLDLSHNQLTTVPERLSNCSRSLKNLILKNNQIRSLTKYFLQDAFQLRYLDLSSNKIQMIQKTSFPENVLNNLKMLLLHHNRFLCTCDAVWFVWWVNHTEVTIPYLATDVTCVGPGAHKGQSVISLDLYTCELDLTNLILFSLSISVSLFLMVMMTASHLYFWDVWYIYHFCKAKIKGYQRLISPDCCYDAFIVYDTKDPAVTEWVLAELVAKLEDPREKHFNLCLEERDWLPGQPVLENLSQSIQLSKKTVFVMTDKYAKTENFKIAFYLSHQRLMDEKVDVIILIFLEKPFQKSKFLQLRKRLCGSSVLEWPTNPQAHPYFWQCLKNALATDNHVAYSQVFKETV
As to the kind of experiment: HEK/293 TLR7 Cell Assay. The format is cell-based. Conditions: TLR7/NFKb HEK cells, R848 agonist 10 uM final concentration, Steady-Glo readout; read-out: TLR7 potency. A digest of the protocol:
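TLR7/NF-κB reporter HEK293 cells, 5000/well, cultured 24 h, then preincubated 30 min with compound before R848 agonist (10 uM final). After 5 h stimulation, Steady-Glo luciferase luminescence read.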

The target of test [2] is T2, TLR8 (Homo sapiens, UniProt Q9NR97).
T2 construct: expressed in transfected cells; host or cells: HEK/293 reporter cells (NF-kB luciferase)
T2 sequence (Q9NR97 27-1041): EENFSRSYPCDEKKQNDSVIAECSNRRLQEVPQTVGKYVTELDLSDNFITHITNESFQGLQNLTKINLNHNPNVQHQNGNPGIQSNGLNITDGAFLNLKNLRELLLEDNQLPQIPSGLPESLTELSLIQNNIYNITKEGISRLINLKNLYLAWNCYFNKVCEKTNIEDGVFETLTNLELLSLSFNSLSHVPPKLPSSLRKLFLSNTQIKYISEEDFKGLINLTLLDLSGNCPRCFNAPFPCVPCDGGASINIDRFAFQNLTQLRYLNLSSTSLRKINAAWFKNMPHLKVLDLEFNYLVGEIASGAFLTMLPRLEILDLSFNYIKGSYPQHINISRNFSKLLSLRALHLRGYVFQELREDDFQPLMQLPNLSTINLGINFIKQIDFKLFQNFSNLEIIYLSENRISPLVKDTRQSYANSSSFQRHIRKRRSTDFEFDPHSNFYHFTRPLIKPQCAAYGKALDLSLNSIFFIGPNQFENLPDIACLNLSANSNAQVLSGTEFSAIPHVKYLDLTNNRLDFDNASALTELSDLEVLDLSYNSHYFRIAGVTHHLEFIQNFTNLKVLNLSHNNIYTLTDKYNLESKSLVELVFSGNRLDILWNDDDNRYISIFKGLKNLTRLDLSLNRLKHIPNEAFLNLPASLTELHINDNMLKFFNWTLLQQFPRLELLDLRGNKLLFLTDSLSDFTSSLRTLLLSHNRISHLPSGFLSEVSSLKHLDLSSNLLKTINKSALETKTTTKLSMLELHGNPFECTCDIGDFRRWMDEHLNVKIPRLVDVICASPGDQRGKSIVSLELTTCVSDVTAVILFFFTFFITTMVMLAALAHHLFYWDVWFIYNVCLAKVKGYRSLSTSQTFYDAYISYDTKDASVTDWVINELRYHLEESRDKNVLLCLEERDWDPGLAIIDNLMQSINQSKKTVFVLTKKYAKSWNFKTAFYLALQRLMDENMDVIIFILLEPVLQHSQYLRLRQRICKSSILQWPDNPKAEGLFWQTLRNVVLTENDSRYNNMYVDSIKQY
As to the kind of experiment: HEK/293 TLR8 Cell Assay. The format is cell-based. Conditions: HEK cells, R848 agonist 30 uM final concentration, Steady-Glo readout; read-out: TLR8 potency.

As for `C[C@@H]1CN(c2ccc(C#N)c3nccnc23)C[C@H](C(=O)N[C@@H](CO)C(=O)O)O1` [Example 321, (S)-2-{[(2R,6R)-4-(8-Cyano-quinoxalin-5-yl)-6-methyl-morpholine-2-carbonyl]-amino}-3-hydroxy-propionic acid], the IC50 in test [1] is 0.075 to 0.15 µM; in test [2] it was over 0.15 µM.
On to `C[C@H]1C[C@@H](N)CN(c2cnc(C(F)(F)F)c3ncccc23)C1` [Example 7, (3R,5S)-5-Methyl-1-(8-trifluoromethyl-[1,7]naphthyridin-5-yl)-piperidin-3-ylamine hydrochloride], for which the IC50 in test [1] and in test [2] was under 0.075 µM in each case.
Take `C[C@H]1C[C@@H](NC(=O)[C@@H](N)CC(N)=O)CN(c2ccc(C(F)(F)F)c3nccnc23)C1` [Example 127, (2S)-2-amino-N-[(3R,5S)-5-methyl-1-[8-(trifluoromethyl)quinoxalin-5-yl]piperidin-3-yl]butanediamide]: the values for the IC50 in test [1] and in test [2] were 0.075 to 0.15 µM and under 0.075 µM, respectively.
On the same counts, the results for `C[C@@H]1CN(c2ccc(C#N)c3nccnc23)C[C@H](C(=O)NC[C@@H](O)C(F)(F)F)O1` [Example 250, (2R,6R)-4-(8-Cyano-quinoxalin-5-yl)-6-methyl-morpholine-2-carboxylic acid ((R)-3,3,3-trifluoro-2-hydroxy-propyl)-amide] are under 0.075 µM and under 0.075 µM.
For `C[C@@H]1CN(c2cnc(C#N)c3ncccc23)C[C@H](C(=O)NCC2CN(C)CCO2)O1` (stereo partly drawn) [Example 271, (2R,6R)-4-(8-Cyano-[1,7]naphthyridin-5-yl)-6-methyl-morpholine-2-carboxylic acid (4-methyl-morpholin-2-ylmethyl)-amide], the IC50 in test [1] and in test [2] was under 0.075 µM each time.
Turning to `C[C@H]1C[C@@H](NCC2COC2)CN(c2ccc(C#N)c3nccnc23)C1` [Example 47, 8-{(3S,5R)-3-Methyl-5-[(oxetan-3-ylmethyl)-amino]-piperidin-1-yl}-quinoxaline-5-carbonitrile], the IC50 in test [1] and in test [2] was under 0.075 µM each time.
With `C[C@@H]1CN(c2ccc(C#N)c3nccnc23)C[C@H](C(=O)NC2CCNC3(CCC3)C2)O1` (stereo partly drawn) [Example 291, (2R,6R)-4-(8-Cyano-quinoxalin-5-yl)-6-methyl-morpholine-2-carboxylic acid (5-aza-spiro[3.5]non-8-yl)-amide], the IC50 in test [1] and in test [2] was under 0.075 µM throughout.
Take `Cc1ncc(N2C[C@H](NC(=O)CN3CCN(C)CC3)C[C@H](C(F)(F)F)C2)c2cccnc12` [Example 70, N-[(3R,5S)-1-(8-methyl-1,7-naphthyridin-5-yl)-5-(trifluoromethyl)piperidin-3-yl]-2-(4-methylpiperazin-1-yl)acetamide]: the IC50 in test [1] and in test [2] was 0.075 to 0.15 µM each time.
As to `C[C@@H]1CN(c2cnc(C#N)c3ncccc23)C[C@H](C(=O)NC[C@H]2CN(C)CCO2)O1` [Example 274, (2R,6R)-4-(8-Cyano-[1,7]naphthyridin-5-yl)-6-methyl-morpholine-2-carboxylic acid ((S)-4-methyl-morpholin-2-ylmethyl)-amide], the IC50 in test [1] and in test [2] was under 0.075 µM throughout.
With `C[C@H]1C[C@@H](NC(=O)C[C@@H](O)CN(C)C)CN(c2ccc(C#N)c3nccnc23)C1` [Example 211, (3R)—N-[(3R,5S)-1-(8-cyanoquinoxalin-5-yl)-5-methylpiperidin-3-yl]-4-(dimethylamino)-3-hydroxybutanamide], the IC50 in test [1] and in test [2] was under 0.075 µM in each case.
For the compound `C[C@@H]1CN(c2cnc(C#N)c3ncccc23)C[C@H](CNCC(O)CF)O1` (stereo partly drawn) [Example 373, 5-{(2S,6R)-2-[(3-Fluoro-2-hydroxy-propylamino)-methyl]-6-methyl-morpholin-4-yl}-[1,7]naphthyridine-8-carbonitrile], the IC50 in test [1] and in test [2] was over 0.15 µM each time.
As to `Cc1noc([C@H]2CN(c3ccc(C#N)c4nccnc34)C[C@@H](C)O2)n1` (racemic) [Example 213, 8-[(2R,6R)-2-Methyl-6-(3-methyl-[1,2,4]oxadiazol-5-yl)-morpholin-4-yl]-quinoxaline-5-carbonitrile], the IC50 in test [1] is over 0.15 µM; in test [2] it was under 0.075 µM.
Consider `N#Cc1ccc(N2C[C@@H](C(F)(F)F)O[C@@H](C(=O)NCC3(F)CCNCC3)C2)c2nccnc12` (single isomer, unassigned) [Example 305], for which the IC50 in test [1] and in test [2] was under 0.075 µM each time.
In the case of `CC[C@@H](NC(=O)[C@H]1CN(c2ccc(C#N)c3nccnc23)C[C@@H](C)O1)C(N)=O` [Example 248, (2R,6R)-4-(8-Cyano-quinoxalin-5-yl)-6-methyl-morpholine-2-carboxylic acid ((R)-1-carbamoyl-propyl)-amide], the results for the IC50 in test [1] and in test [2] were 0.075 to 0.15 µM and under 0.075 µM, respectively.
For the compound `CNS(=O)(=O)CCCN[C@@H]1C[C@H](C)CN(c2ccc(C(F)(F)F)c3ncccc23)C1` [Example 32, 3-[(3R,5S)-5-Methyl-1-(8-trifluoromethyl-quinolin-5-yl)-piperidin-3-ylamino]-propane-1-sulfonic acid methylamide], the IC50 in test [1] and in test [2] was under 0.075 µM throughout.
As to `Cc1c(F)cc(N2C[C@H](NC(=O)CC3(O)CCN(C)CC3)C[C@H](C(F)(F)F)C2)c2cccnc12` [Example 68, hydrochloride], the IC50 in test [1] and in test [2] was under 0.075 µM in each case.
Consider `CC(C(=O)N[C@@H]1C[C@H](C(F)(F)F)CN(c2ccc(C(F)(F)F)c3ncccc23)C1)N1CCN(C)CC1` (single isomer, unassigned) [Example 94], for which the IC50 in test [1] is 0.075 to 0.15 µM; in test [2] it was under 0.075 µM.
As to `C[C@H]1C[C@@H](NCCC(N)=O)CN(c2ccc(C(F)(F)F)c3nccnc23)C1` [Example 22, 3-[(3R,5S)-5-Methyl-1-(8-trifluoromethyl-quinoxalin-5-yl)-piperidin-3-ylamino]-propionamide], the IC50 in test [1] and in test [2] was under 0.075 µM in each case.
Regarding `C[C@H]1C[C@@H](n2cccn2)CN(c2ccc(C(F)(F)F)c3nccnc23)C1` (racemic) [Example 155, 5-[cis-3-methyl-5-(1H-pyrazol-1-yl)piperidin-1-yl]-8-(trifluoromethyl)quinoxaline], the IC50 in test [1] and in test [2] was over 0.15 µM each time.
In the case of `C[C@@H]1CN(c2cnc(C#N)c3ncccc23)C[C@H](C(=O)NC2CCN(CC3CC3)C2)O1` (stereo partly drawn) [Example 272, (2R,6R)-4-(8-Cyano-[1,7]naphthyridin-5-yl)-6-methyl-morpholine-2-carboxylic acid (1-cyclopropylmethyl-pyrrolidin-3-yl)-amide], the IC50 in test [1] and in test [2] was under 0.075 µM in each case.
